Experimental data: ChEMBL document CHEMBL1697781, “Assessment of the health effects of chemicals in humans: II. Construction of an adverse effects database for QSAR modeling” (Curr Drug Discov Technol, 2004)
Wherever GGT Increase - Index Value is given: reference of the scale not given here.
Wherever LDH Increase - Index Value is given: reference of the scale not given here.

These compounds were tested on Hepatotoxicity (assay: FDA HLAED, alkaline phosphatase increase). Conditions: human.
In the case of `CO/N=C(\C(=O)N[C@@H]1C(=O)N2C(C(=O)O)=C(COC(C)=O)CS[C@H]12)c1csc(N)n1` [CEFOTAXIME], the “Alkaline Phosphatase Increase - Activity Score” value is reported as “Inactive”, the “Alkaline Phosphatase Increase - Index Value” is reported as 0.3 and the “Alkaline Phosphatase Increase - Number of Reports” value is reported as under 4. In the case of `CO[C@@]1(NC(=O)C2SC(=C(C(N)=O)C(=O)O)S2)C(=O)N2C(C(=O)O)=C(CSc3nnnn3C)CS[C@@H]21` (some centres not stated) [CEFOTETAN], the “Alkaline Phosphatase Increase - Activity Score” value is reported as “Inactive”, the “Alkaline Phosphatase Increase - Index Value” is reported as 0.7 and the “Alkaline Phosphatase Increase - Number of Reports” value is reported as under 4. With `CO[C@@]1(NC(=O)Cc2cccs2)C(=O)N2C(C(=O)O)=C(COC(N)=O)CS[C@@H]21` [CEFOXITIN] the “Alkaline Phosphatase Increase - Activity Score” value was “Inactive”, the “Alkaline Phosphatase Increase - Index Value” was 0 and the “Alkaline Phosphatase Increase - Number of Reports” value was under 4. `COCC1=C(C(=O)OC(C)OC(=O)OC(C)C)N2C(=O)[C@@H](NC(=O)/C(=N\OC)c3csc(N)n3)[C@H]2SC1` (some centres not stated) [CEFPODOXIME PROXETIL] was tested, and the “Alkaline Phosphatase Increase - Activity Score” value was “Inactive”, the “Alkaline Phosphatase Increase - Index Value” was 1 and the “Alkaline Phosphatase Increase - Number of Reports” value was “>= 4”.

What follows are compounds tested on Hepatotoxicity (assay: FDA HLAED, serum glutamic oxaloacetic transaminase (SGOT) increase). Conditions: human.
`CO/N=C(\C(=O)N[C@@H]1C(=O)N2C(C(=O)O)=C(COC(C)=O)CS[C@H]12)c1csc(N)n1` [CEFOTAXIME] was tested, and the “SGOT Increase - Activity Score” value was “Active”, the “SGOT Increase - Index Value” was 4.7 and the “SGOT Increase - Number of Reports” value was “>= 4”. For `CO[C@@]1(NC(=O)C2SC(=C(C(N)=O)C(=O)O)S2)C(=O)N2C(C(=O)O)=C(CSc3nnnn3C)CS[C@@H]21` (some centres not stated) [CEFOTETAN], the “SGOT Increase - Activity Score” value was “Inactive”, the “SGOT Increase - Index Value” was 0 and the “SGOT Increase - Number of Reports” value was under 4. For `CO[C@@]1(NC(=O)Cc2cccs2)C(=O)N2C(C(=O)O)=C(COC(N)=O)CS[C@@H]21` [CEFOXITIN], the “SGOT Increase - Activity Score” value was “Inactive”, the “SGOT Increase - Index Value” was 0 and the “SGOT Increase - Number of Reports” value was under 4. For `COCC1=C(C(=O)OC(C)OC(=O)OC(C)C)N2C(=O)[C@@H](NC(=O)/C(=N\OC)c3csc(N)n3)[C@H]2SC1` (some centres not stated) [CEFPODOXIME PROXETIL], the “SGOT Increase - Activity Score” value was “Inactive”, the “SGOT Increase - Index Value” was 1 and the “SGOT Increase - Number of Reports” value was “>= 4”.

What follows are compounds tested on Hepatotoxicity (assay: FDA HLAED, lactate dehydrogenase (LDH) increase). Conditions: human.
For `CO/N=C(\C(=O)N[C@@H]1C(=O)N2C(C(=O)O)=C(COC(C)=O)CS[C@H]12)c1csc(N)n1` [CEFOTAXIME], the “LDH Increase - Activity Score” value was “Inactive”, the “LDH Increase - Index Value” was 0 and the “LDH Increase - Number of Reports” value was under 4. With `CO[C@@]1(NC(=O)C2SC(=C(C(N)=O)C(=O)O)S2)C(=O)N2C(C(=O)O)=C(CSc3nnnn3C)CS[C@@H]21` (some centres not stated) [CEFOTETAN] the “LDH Increase - Activity Score” value was “Inactive”, the “LDH Increase - Index Value” was 0 and the “LDH Increase - Number of Reports” value was under 4. `CO[C@@]1(NC(=O)Cc2cccs2)C(=O)N2C(C(=O)O)=C(COC(N)=O)CS[C@@H]21` [CEFOXITIN] was tested, and the “LDH Increase - Activity Score” value was “Inactive”, the “LDH Increase - Index Value” was 0 and the “LDH Increase - Number of Reports” value was under 4. `COCC1=C(C(=O)OC(C)OC(=O)OC(C)C)N2C(=O)[C@@H](NC(=O)/C(=N\OC)c3csc(N)n3)[C@H]2SC1` (some centres not stated) [CEFPODOXIME PROXETIL] was tested, and the “LDH Increase - Activity Score” value was “Inactive”, the “LDH Increase - Index Value” was 0.2 and the “LDH Increase - Number of Reports” value was under 4.

What follows are compounds tested on Hepatotoxicity (assay: FDA HLAED, gamma-glutamyl transferase (GGT) increase). Conditions: human.
In the case of `CO/N=C(\C(=O)N[C@@H]1C(=O)N2C(C(=O)O)=C(COC(C)=O)CS[C@H]12)c1csc(N)n1` [CEFOTAXIME], the “GGT Increase - Activity Score” value is reported as “Inactive”, the “GGT Increase - Index Value” is reported as 0 and the “GGT Increase - Number of Reports” value is reported as under 4. For `CO[C@@]1(NC(=O)C2SC(=C(C(N)=O)C(=O)O)S2)C(=O)N2C(C(=O)O)=C(CSc3nnnn3C)CS[C@@H]21` (some centres not stated) [CEFOTETAN], the “GGT Increase - Activity Score” value was “Inactive”, the “GGT Increase - Index Value” was 0 and the “GGT Increase - Number of Reports” value was under 4. In the case of `CO[C@@]1(NC(=O)Cc2cccs2)C(=O)N2C(C(=O)O)=C(COC(N)=O)CS[C@@H]21` [CEFOXITIN], the “GGT Increase - Activity Score” value is reported as “Inactive”, the “GGT Increase - Index Value” is reported as 0 and the “GGT Increase - Number of Reports” value is reported as under 4. For `COCC1=C(C(=O)OC(C)OC(=O)OC(C)C)N2C(=O)[C@@H](NC(=O)/C(=N\OC)c3csc(N)n3)[C@H]2SC1` (some centres not stated) [CEFPODOXIME PROXETIL], the “GGT Increase - Activity Score” value was “Inactive”, the “GGT Increase - Index Value” was 0.5 and the “GGT Increase - Number of Reports” value was under 4.

Each compound was assayed on Hepatotoxicity (assay: FDA HLAED, serum glutamic pyruvic transaminase (SGPT) increase). Conditions: human.
For `CO/N=C(\C(=O)N[C@@H]1C(=O)N2C(C(=O)O)=C(COC(C)=O)CS[C@H]12)c1csc(N)n1` [CEFOTAXIME], the “SGPT Increase - Activity Score” value was “Inactive”, the “SGPT Increase - Index Value” was 2 and the “SGPT Increase - Number of Reports” value was under 4. With `CO[C@@]1(NC(=O)C2SC(=C(C(N)=O)C(=O)O)S2)C(=O)N2C(C(=O)O)=C(CSc3nnnn3C)CS[C@@H]21` (some centres not stated) [CEFOTETAN] the “SGPT Increase - Activity Score” value was “Inactive”, the “SGPT Increase - Index Value” was 0 and the “SGPT Increase - Number of Reports” value was under 4. `CO[C@@]1(NC(=O)Cc2cccs2)C(=O)N2C(C(=O)O)=C(COC(N)=O)CS[C@@H]21` [CEFOXITIN] was tested, and the “SGPT Increase - Activity Score” value was “Inactive”, the “SGPT Increase - Index Value” was 0 and the “SGPT Increase - Number of Reports” value was under 4. With `COCC1=C(C(=O)OC(C)OC(=O)OC(C)C)N2C(=O)[C@@H](NC(=O)/C(=N\OC)c3csc(N)n3)[C@H]2SC1` (some centres not stated) [CEFPODOXIME PROXETIL] the “SGPT Increase - Activity Score” value was “Inactive”, the “SGPT Increase - Index Value” was 0.8 and the “SGPT Increase - Number of Reports” value was “>= 4”.

Each compound was assayed on Hepatotoxicity (assay: FDA HLAED, liver enzyme composite activity). Conditions: human.
With `CO/N=C(\C(=O)N[C@@H]1C(=O)N2C(C(=O)O)=C(COC(C)=O)CS[C@H]12)c1csc(N)n1` [CEFOTAXIME] the “Composite Activity - Active” value was 1, the “Composite Activity - Marginal” value was 0 and the “Composite Activity - Score” value was “Inactive”. For `CO[C@@]1(NC(=O)C2SC(=C(C(N)=O)C(=O)O)S2)C(=O)N2C(C(=O)O)=C(CSc3nnnn3C)CS[C@@H]21` (some centres not stated) [CEFOTETAN], the “Composite Activity - Active” value was 0, the “Composite Activity - Marginal” value was 0 and the “Composite Activity - Score” value was “Inactive”. `CO[C@@]1(NC(=O)Cc2cccs2)C(=O)N2C(C(=O)O)=C(COC(N)=O)CS[C@@H]21` [CEFOXITIN] was tested, and the “Composite Activity - Active” value was 0, the “Composite Activity - Marginal” value was 0 and the “Composite Activity - Score” value was “Inactive”. `COCC1=C(C(=O)OC(C)OC(=O)OC(C)C)N2C(=O)[C@@H](NC(=O)/C(=N\OC)c3csc(N)n3)[C@H]2SC1` (some centres not stated) [CEFPODOXIME PROXETIL] was tested, and the “Composite Activity - Active” value was 0, the “Composite Activity - Marginal” value was 0 and the “Composite Activity - Score” value was “Inactive”.
